# Measured values published in patent US10934244B2, “Compounds for use in treating neuromuscular disorders” (NMD PHARMA A/S, priority 2015, dated 2021).
# Legend:
# [1] = tested on: isolated rat soleus muscles; assay: Recovery of nerve-stimulated force in isolated rat soleus muscles at elevated extracellular Mg2+ (3.5 mM); format: cell-based; details: muscle at elevated Mg2+ (3.5 mM); FIG. 2B
# Experimental: (§1) Experiments were performed using rat soleus muscles from either young (4-wk-old) or adult Wistar rats (12-14-week-old). Animal handling, killing and isolation of muscle is described elsewhere^26 All experiments were performed using normal Krebs-Ringer bicarbonate solution^26 (NKR). In solutions with elevated Mg^2+, MgCl2 was added to NKR-solution causing minor increases in osmolarity and ionic strength. In solutions with elevated K^+, 4 mM NaCl was replaced by 4 mM KCl in the NKR.
# In all contraction experiments, isometric force production was determined and force produced during contractions was quantified by measuring the integral of the force response (AUC). Stimulation and force recordings have been described elsewhere^26. […] In these latter experiments, extracellular recordings of action potentials (M-waves) could be measured without temporal overlap with stimulation artefacts. […]
# The next series of experiments determined whether the compounds that recovered nerve-stimulated force in the presence of tubocurarine could also recover nerve-stimulated force at elevated extracellular Mg^2+.
# [2] = tested on: isolated rat soleus muscles; assay: Recovery of nerve-stimulated force in isolated rat soleus muscles exposed to sub-maximal tubocurarine; format: cell-based
# Experimental: as §1
# In all contraction experiments, isometric force production was determined and force produced during contractions was quantified by measuring the integral of the force response (AUC). Stimulation and force recordings have been described elsewhere^26. […] In these latter experiments, extracellular recordings of action potentials (M-waves) could be measured without temporal overlap with stimulation artefacts.
# To initially confirm that inhibition of ClC-1 ion channels can be used to recover contractile force in muscle with reduced neuromuscular transmission, isolated nerve-muscle preparations were first exposed to either tubocurarine (FIG. 2A) or elevated Mg^2+ (FIG. 2B) and then a specific ClC-1 inhibitor (9-AC) was added. […]
# [3] = tested on: rats injected with MAB35 monoclonal antibody; assay: Rotarod running performance in passive immunization model of myasthenia gravis (MAB35); format: in vivo, rat; details: compared to sham
# Experimental: FIG. 10. […] Prior to I.P. injection of MAB35 the animals had been familiarized to the rotarod over three training sessions distributed over two days. […] After this treatment performance was monitored every second hour. *Indicates significant different as evaluated using student t-test.
# (§2) In both series of experiments, running performance was tested on a rotarod using a protocol where the rod was accelerated gradually over a 5 min period, and the running time and covered distance before falling off the rod were measured.
# In experiments with MAB35, animals were first familiarized with the rotarod over two consecutive days and then injected I.P. with MAB35. After injection, rotarod performance was then again monitored regularly over the consecutive two days. […] A considerable number of animals, however, became moribund failing to walk and they had altered ventilation (rapid) and pronounced ptosis. These animals were not included in experiments.
# In the last series of experiments, myasthenia gravis was mimicked in rats by inducing an immunological reaction against the motor endplate of muscle fibers using monoclonal antibody against the nicotinic ACh receptor in muscle fibers. Again the animals had been familiarized to the rotarod before the MAB35 injection. […] From FIG. 10 it can be seen that upon injection sham treatment the performance further declined.
# [4] = tested on: isolated human muscles; format: cell-based; details: 150 μM C8; elevated K+ and TTX
# [5] = Pharmacokinetic analysis of a single I.P. dose in rats; format: in vivo; details: rat, ip, single I.P. dose 10 mg/kg, Sprague-Dawley rats, plasma
# Experimental: This part of the study was performed by Pipeline Biotech A/S (Spørring, Denmark). […] Plasma concentrations (free and bound) were determined by OnTarget Chemistry (Uppsala, Sweden, Project No.: PB243-001).
# Before conducting in vivo experiments with animal models of myasthenia gravis, some pharmacokinetic details were obtained for C8 in response to one-bolus I.P. injection.
# [6] = tested on: rats injected with tubocurarine; assay: Rotarod running performance of rats after I.P. tubocurarine (myasthenia like phenotype); format: in vivo, rat; details: C8 20 mg/kg I.P. 2 hrs before tubocurarine 0.13 mg/kg I.P.; tested 21 minutes after tubocurarine; sham around 2%
# Experimental: FIG. 9. […] A) illustrates the design of the experiments. Prior to Day One the animals had been familiarized to the rotarod in three training sessions distributed over two days.
# as §2
# Experiments with tubocurarine were carried out over two days, and on each day the effect of tubocurarine on running performance was tested. On the first day only tubocurarine was injected. […] On the second day, the animals were first allowed to run on the rotarod, and all animals performed normally. […] The allocation of the animals into the two groups (C8 or sham) was random and unknown to the experimenter (blinded experimental design).
# In the first series of in vivo experiments, myasthenia gravis was simply mimicked by I.P. injection of tubocurarine (0.13 mg/kg) in animals that had been familiarized to running on the rotarod. On the first of two consecutive days, tubocurarine was injected I.P. and the running performance of the animal was tested 21 minutes after this injection. On the second day of experimentation, the animals first performed a test run to ensure that they were no longer affected by the tubocurarine injected the day before. […]
# [7] = tested on: soleus muscles; assay: Mg2+ concentration required to depress nerve-stimulated force by 50% (Kd,Mg2+), combination treatments; format: cell-based, rat; details: C8 combined with 3,4-diaminopyridine
# Experimental: FIG. 6. […] Muscles from 4-week-old rats were stimulated to contract by activating the motor nerve with short duration pulses in field stimulation. Muscles contracted every 10 min for 2 s in response to 30 Hz stimulation. Four different experimental conditions were used. […] C) similar to A) but this muscle had been pre-incubated with 3,4-AP. […] The force integral (AUC) was determined at each extracellular Mg^2+ concentration. AUC was plotted against Mg^2+ concentration and the data was fitted to a sigmoidal function (FIG. 6E). This provided the extracellular Mg^2+ concentration that was required to reduce the nerve-stimulated force to 50% (Mg50) under the four different conditions (see Table 5).
# While the use of tubocurarine mimics conditions with reduced neuromuscular transmission due to post-synaptic dysfunction (myasthenia gravis, neuromuscular blockade), the experiments with elevated extracellular Mg^2+ mimics conditions with pre-synaptic dysfunction akin to a range of neuromuscular disorders including Lambert Eaton syndrome^26, motor neuron disorders^6-9 and polyneuropathy^18, 19. […] Based on this it was determined whether recovery of nerve-stimulated force at elevated extracellular Mg^2+ with ClC-1 inhibiting compounds could be added to force recovery with 3,4-AP. […] To quantify the effect of compounds on Mg^2+ sensitivity the force at the different Mg^2+ concentrations was determined. […]
# [8] = tested on: rat soleus muscles; format: cell-based; details: 10 and 25 μM, compared to control conditions; 1 μM μ-conotoxin GiiiB
SMILES,recovery of force and M-wave signal [1],"recovery of force and M-wave signal ([2]; muscle exposed to tubocurarine, FIG. 2A)",rotarod running performance after injection ([3]; 20 mg/kg C8 I.P.),rotarod running performance after injection ([3]; 30 mg/kg C8 I.P.),contractile force [4],AUC(0-t) [5],C0 [5],Cmax [5],AUC(0-inf) ([5]; read-out: AUC 0-inf_obs),half-life ([5]; read-out: t½ (converted)),increase in running distance on second day compared to first day [6],effect of combination on recovery of neuromuscular transmission [7],EPP amplitude [8],"nerve-stimulated force after addition of compound (in words) ([2]; 50 μM added after 40 min in tubocurarine, FIG. 3A)"
"O=C(O)c1c2ccccc2cc2ccccc12 [Compound 9-AC, reference compound]",marked recovery of both force and M-wave signal,marked recovery of both force and M-wave signal,–,–,–,–,–,–,–,–,–,–,–,–
"C[C@H](Oc1ccc(Br)cc1)C(=O)O [Compound C8, (2S)-2-(4-bromophenoxy)propanoic acid]",–,–,decline was reduced,clear recovery of performance,markedly recovery,204 µg·h/mL,24500 ng/mL,44600 ng/mL,205 µg·h/mL,222 min,around 150%,unexpected synergistic effect,significantly larger EPPs,recovered markedly
